Where two headings read alike, the source gives them in different places.
What was measured:
Type in all cases: physicochemical
[1] = Kinematic viscosity (KV) of base oils
Source text: KV: The kinematic viscosity of an oil in centistokes.
(§1) Some properties of alk-1-enes of carbon number between 12 and 20 are shown in Table 1 (which appears at the end of this description) and compared with an ester oil, a linear alkyl benzene, and a polyalphaolefin.

[2] = Pour point of base oils
Source text: as §1

[3] = Example 5: visible fluorescence under ultraviolet illumination
Source text: A sample of C14-16 linear alphaolefin was placed under ultraviolet illumination and its visible fluorescence noted. The fluorescence was compared to that of some other known base oils.

[4] = Flash point of base oils
Source text: as §1

| Compound | KV at 40° C. [1] [Cst] | Pour Point [2] | Fluorescence (colour) ([3]; continued lines of the cell) | Fluorescence (intensity) ([3]; first printed line of the cell) | KV at 40° C. ([1]; 40° C.) [Cst] | Flash Point [4] [°C] |
| --- | --- | --- | --- | --- | --- | --- |
| C=CCCCCCCCCCCCCCC [C16] | 2.62 | +4 °C |  |  |  |  |
| CCCCCCCC/C=C\CCCCCCCC(=O)OCC(CC)CCCC (stereo not drawn) [2-ethylhexyl oleate] |  |  | white | Medium |  |  |
| C=CCCCCCCCCCCCC [C14] |  | -13 °C |  |  | 1.85 | 107 |
| C=CCCCCCCCCCCCCCCCC [C18] |  | +18 °C |  |  | 3.59 |  |
| C=CCCCCCCCCCC [C12] | 1.29 | -35 °C |  |  |  | 77 |

— patent publication US5627143A, “Wellbore fluid” (Dowell Schlumberger Incorporated, priority 1993, dated 1997)
